From PubChem BioAssay AID248 (DTP/NCI, 2004) come the findings set out here.

Several values for one entry are separate records, joined by “and”; a condition that tells them apart may be missing. Equal entries are not always repeated. Toxic doses and inconclusive results are not listed. Square brackets hold non-standard residues; d marks the D form. Peptide text beside a SMILES is read from it. * marks the point of attachment. ξ: configuration not given here. Cbz = O=C(OCc1ccccc1)*; ξL = CC(C)CC(N)C(=O)O; OBn = c1ccc(CO*)cc1

This assay relates to L1210 leukemia ip in BDF1 mice, survival T/C. Description: NCI In Vivo Anticancer Drug Screen. Data for tumor model L1210 Leukemia (intraperitoneal) in B6D2F1 (BDF1) mice. The settings on record: endpoint: mean survival time, higher = longer survival. Summed up:
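Ratio derived from survival: compound-dosed mice over vehicle-dosed mice, all bearing a transplantable tumor.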

Where [1] appears, read: dose: 100.0 mg/kg/injection, schedule: Q04DX003 (ip), vehicle: Klucel (hydroxypropylcellulose) (HPC).
The mark [2] stands for this setting: dose: 100.0 mg/kg/injection, schedule: Q04DX002 (ip), vehicle: saline with Tween-80.
Setting [3] is: dose: 50.0 mg/kg/injection, schedule: Q01DX001 (ip), vehicle: carboxymethylcellulose (CMC).
[4] abbreviates: dose: 100.0 mg/kg/injection, schedule: Q01DX001 (ip), vehicle: carboxymethylcellulose (CMC).
The mark [5] stands for this setting: dose: 200.0 mg/kg/injection, schedule: Q01DX001 (ip), vehicle: carboxymethylcellulose (CMC).
Where [6] appears, read: dose: 200.0 mg/kg/injection, schedule: Q01DX001 (ip), vehicle: saline.
The mark [7] stands for this setting: dose: 100.0 mg/kg/injection, schedule: Q01DX009 (ip), vehicle: saline with Tween-80.
Where [8] appears, read: dose: 200.0 mg/kg/injection, schedule: Q01DX009 (ip), vehicle: saline with Tween-80.
[9] abbreviates: dose: 200.0 mg/kg/injection, schedule: Q04DX003 (ip), vehicle: Klucel (hydroxypropylcellulose) (HPC).
Setting [10] is: dose: 400.0 mg/kg/injection, schedule: Q04DX003 (ip), vehicle: Klucel (hydroxypropylcellulose) (HPC).

On to `Cc1cc(NC(=O)c2ccc(C(=O)Nc3ccc(C4=NCCN4)c(C)c3)cc2)ccc1C1=NCCN1`, for which the T/C is, setting by setting: (dose: 48.0 mg/kg/injection, schedule: Q01DX Z (ip), vehicle: carboxymethylcellulose (CMC)) 109 % of control; (dose: 72.0 mg/kg/injection, schedule: Q01DX Z (ip), vehicle: carboxymethylcellulose (CMC)) 122 % of control; (dose: 100.0 mg/kg/injection, schedule: Q01DX Z (oral), vehicle: water) 92 % of control; (dose: 110.0 mg/kg/injection, schedule: Q01DX Z (ip), vehicle: carboxymethylcellulose (CMC)) 150 % of control and 277 % of control; (dose: 168.0 mg/kg/injection, schedule: Q01DX Z (ip), vehicle: carboxymethylcellulose (CMC)) 164 % of control; (dose: 200.0 mg/kg/injection, schedule: Q01DX Z (oral), vehicle: water) 107 % of control. The T/C reads like this: (dose: 250.0 mg/kg/injection, schedule: Q01DX Z (ip), vehicle: carboxymethylcellulose (CMC)) 108 % of control and 112 % of control; (dose: 375.0 mg/kg/injection, schedule: Q01DX Z (ip), vehicle: carboxymethylcellulose (CMC)) 92 % of control; (dose: 400.0 mg/kg/injection, schedule: Q01DX Z (oral), vehicle: water) 92 % of control; (dose: 800.0 mg/kg/injection, schedule: Q01DX Z (oral), vehicle: water) 102 % of control.
`NC1CCC(CC2CCCCC2)CC1` (centres undefined): the T/C by setting is: (dose: 25.0 mg/kg/injection, schedule: Q01DX009 (ip), vehicle: Klucel (hydroxypropylcellulose) (HPC)) 96 % of control; (dose: 25.0 mg/kg/injection, schedule: Q04DX003 (ip), vehicle: Klucel (hydroxypropylcellulose) (HPC)) 95 % of control; (dose: 50.0 mg/kg/injection, schedule: Q01DX009 (ip), vehicle: Klucel (hydroxypropylcellulose) (HPC)) 98 % of control; (dose: 50.0 mg/kg/injection, schedule: Q04DX003 (ip), vehicle: Klucel (hydroxypropylcellulose) (HPC)) 100 % of control; under setting [1], 91 % of control.
Take `CC(CO)(CO)C1CCCCC1`: the T/C reads like this: (dose: 25.0 mg/kg/injection, schedule: Q04DX002 (ip), vehicle: saline with Tween-80) 93 % of control; (dose: 50.0 mg/kg/injection, schedule: Q04DX002 (ip), vehicle: saline with Tween-80) 101 % of control; under setting [2], 97 % of control.
Regarding `CCCC(NC)C(CC)CN` (centres undefined), the T/C is 105 % of control and 120 % of control under setting [3]; 97 % of control (dose: 75.0 mg/kg/injection, schedule: Q01DX001 (ip), vehicle: saline); 109 % of control (dose: 88.0 mg/kg/injection, schedule: Q01DX001 (ip), vehicle: saline); 104 % of control under setting [4]; 101 % of control (dose: 133.0 mg/kg/injection, schedule: Q01DX001 (ip), vehicle: saline); 97 % of control (dose: 150.0 mg/kg/injection, schedule: Q01DX001 (ip), vehicle: saline). Besides, the T/C under setting [5] is 93 % of control and 242 % of control; the T/C under setting [6] is 101 % of control.
With `CC(=O)OCC1OC(n2cnc(N)c2C#N)C(OC(C)=O)C1OC(C)=O` (centres undefined), the T/C is 98 % of control (dose: 50.0 mg/kg/injection, schedule: Q01DX001 (ip), vehicle: saline); 102 % of control (dose: 100.0 mg/kg/injection, schedule: Q01DX001 (ip), vehicle: saline); 102 % of control under setting [6]; 102 % of control (dose: 400.0 mg/kg/injection, schedule: Q01DX001 (ip), vehicle: saline).
Turning to `CCCCCCCCCCCC(=O)NC(=S)Nc1cccc(Cl)c1`, the T/C (dose: 100.0 mg/kg/injection, schedule: Q01DX001 (ip), vehicle: saline with Tween-80) was 93 % of control; the T/C under setting [7] is 107 % of control and 89 % of control; the T/C under setting [2] was 122 % of control and 91 % of control; the T/C (dose: 200.0 mg/kg/injection, schedule: Q01DX001 (ip), vehicle: saline with Tween-80) is 93 % of control; the T/C under setting [8] is 96 % of control and 86 % of control; the T/C (dose: 200.0 mg/kg/injection, schedule: Q04DX002 (ip), vehicle: saline with Tween-80) was 97 % of control and 119 % of control. The T/C was 90 % of control (dose: 400.0 mg/kg/injection, schedule: Q01DX001 (ip), vehicle: saline with Tween-80); 105 % of control and 92 % of control (dose: 400.0 mg/kg/injection, schedule: Q04DX002 (ip), vehicle: saline with Tween-80).
In the case of `CC1OC(OC2CCC3(C=O)C4CCC5(C)C(C6=CC(=O)OC6)CCC5(O)C4CCC3(O)C2)C(O)C(O)C1O` (centres undefined), the T/C (dose: 3.0 mg/kg/injection, schedule: Q01DX001 (ip), vehicle: carboxymethylcellulose (CMC)) was 96 % of control and the T/C (dose: 6.0 mg/kg/injection, schedule: Q01DX001 (ip), vehicle: carboxymethylcellulose (CMC)) was 98 % of control.
Consider `O=[N+]([O-])c1ccc(Nc2ccccc2)nc1`, for which the T/C reads like this: under setting [3], 106 % of control; under setting [4], 106 % of control; under setting [5], 101 % of control; (dose: 400.0 mg/kg/injection, schedule: Q01DX001 (ip), vehicle: carboxymethylcellulose (CMC)) 106 % of control.
Turning to `ClC1(Cl)C2CCCOC21` (centres undefined), the T/C reads like this: (dose: 100.0 mg/kg/injection, schedule: Q01DX009 (ip), vehicle: Klucel (hydroxypropylcellulose) (HPC)) 97 % of control; (dose: 200.0 mg/kg/injection, schedule: Q01DX009 (ip), vehicle: Klucel (hydroxypropylcellulose) (HPC)) 100 % of control; (dose: 400.0 mg/kg/injection, schedule: Q01DX009 (ip), vehicle: Klucel (hydroxypropylcellulose) (HPC)) 98 % of control.
With `O=C(O)CNC(CSCc1ccccc1)CSCc1ccccc1`, the T/C reads like this: (dose: 25.0 mg/kg/injection, schedule: Q01DX009 (ip), vehicle: saline with Tween-80) 101 % of control; (dose: 50.0 mg/kg/injection, schedule: Q01DX009 (ip), vehicle: saline with Tween-80) 106 % of control; under setting [7], 90 % of control; under setting [8], 97 % of control; (dose: 400.0 mg/kg/injection, schedule: Q01DX009 (ip), vehicle: saline with Tween-80) 103 % of control.
Take `Cc1cccc(NC(=O)Cc2ccccc2)c1C`: the T/C was 99 % of control (dose: 100.0 mg/kg/injection, schedule: Q04DX002 (ip), vehicle: saline); 105 % of control (dose: 200.0 mg/kg/injection, schedule: Q04DX002 (ip), vehicle: saline); 101 % of control (dose: 400.0 mg/kg/injection, schedule: Q04DX002 (ip), vehicle: saline).
In the case of `CC(C)CC(NC(=O)CNC(=O)CNC(=O)OCc1ccccc1)C(=O)OCc1ccccc1` (stereo not drawn) (Cbz-Gly-Gly-[ξL]-OBn), the T/C by setting is: under setting [1], 94 % of control; under setting [9], 96 % of control; under setting [10], 100 % of control.
In the case of `COc1ccc(-c2nc3ccccc3s2)cc1OC`, the T/C runs as follows: under setting [1], 95 % of control and 105 % of control; under setting [9], 98 % of control and 102 % of control; under setting [10], 98 % of control and 105 % of control.
For the compound `CC(=O)c1ccc(OC(=O)Nc2cc([N+](=O)[O-])ccc2F)cc1`, the T/C was 98 % of control under setting [1], 101 % of control under setting [9] and 95 % of control under setting [10].
